How the values were obtained:
Assay type in all cases: in vivo
db/db mice [1] = test: Glucose and lipid metabolism in db/db mice, 56 d administration; conditions: once/d 56 d, TMP 5.0 mg/kg, mean±SEM, n=6; for Creatinine / Total cholesterol / Triglyceride / Urea: Losartan 10 mg/kg; for Creatinine / Total cholesterol / Triglyceride / Urea / Glucose determination / High-density lipoprotein cholesterol / Low-density lipoprotein cholesterol: OLB-1/OLB-2 13.32 mg/kg; for Glycated hemoglobin / Glucose determination / High-density lipoprotein cholesterol / Low-density lipoprotein cholesterol: metformin 225 mg/kg/d; for Glycated hemoglobin: OLB-1/OLB-2 13.32 mg/kg (0.037 mmol/kg)
Experimental: Mice of a normal control group and model mice were given normal saline 10 ml/kg/d, metformin hydrochloride enteric-coated tablets 225 mg/kg/d, Losartan 10 mg/kg, TMP (5.0 mg/kg, 0.037 mmol/kg), and OLB-1 and OLB-2 (13.32 mg/kg, 0.037 mmol/kg), at a volume of 10 mL/kg, once/d, for continuous administration of 56 d, blood lipids and blood glucose related indexes were measured after blood collection. Data were presented as mean±SEM; n=6 per group. One-way ANOVA and multiple range test were adopted to show differences between the two groups. a, p<0.05 vs. db/db group; c, p<0.001 vs. db/db group.

db/db mice [2] = test: Biochemical and metabolic indicators in db/db mice, 90 d administration; conditions: once/d 90 d, Losartan 15 mg/kg/d, TMP 5.0 mg/kg, OLB-1 2.31 mg/kg, OLB-2 2.3 mg/kg, mean±SEM, n=6
5*FAD mice [3] = test: Pro-inflammatory factors in hippocampus of 5*FAD mice, ELISA; conditions: 6-month-old 5*FAD mice treated 3 months, low and high dosage; FIG. 3 and FIG. 4
Experimental: After 6-month-old 5*FAD mice were treated with OLB-1 and OLB-2 for 3 months, the levels of IL-1β (A) and TNFα (B) in mouse hippocampus were detected by ELISA. 5*FAD mice were treated with low-dosage and high-dosage OLB-1 (low dosage: 2.31 mg/kg, 0.007 mmol/kg; high dosage: 11.70 mg/kg, 0.037 mmol/kg, the same below) and OLB-2 (low dosage: 2.3 mg/kg, 0.007 mmol/kg; high dosage: 11.67 mg/kg, 0.037 mmol/kg, the same below) and TMP (5.0 mg/kg, 0.037 mmol/kg, the same below). Data were presented as mean±SEM; n=5 to 6 per group. One-way ANOVA and multiple range test were adopted to show differences between the two groups. **p<0.01, ***p<0.001 vs. WT group; #p<0.05, ##p<0.01, ###p<0.001 vs. 5*FAD group.

5*FAD mice [4] = test: Memory impairment in 5*FAD mice, electrical jumping (errors jumping off the platform); conditions: 6-month-old 5*FAD mice treated 3 months, low and high dosage; FIG. 5
Experimental: After 6-month-old 5*FAD mice were treated with OLB-1 and OLB-2 for 3 months, the number of errors that the mice jumped off the platform was detected by electrical jumping. 5*FAD mice were treated with low-dosage and high-dosage OLB-1 (low dosage: 2.31 mg/kg, 0.007 mmol/kg; high dosage: 11.70 mg/kg, 0.037 mmol/kg) and OLB-2 (low dosage: 2.3 mg/kg, 0.007 mmol/kg; high dosage: 11.67 mg/kg, 0.037 mmol/kg) and TMP (5.0 mg/kg, 0.037 mmol/kg, the same below). Data were presented as mean±SEM; n=10 per group. One-way ANOVA and multiple range test were adopted to show differences between the two groups. ***p<0.001 vs. WT group; #p<0.05, ##p<0.01 vs. 5*FAD group.

[5] = test system: ALS (SOD-G93A) transgenic mice; test: Pole climbing test in ALS transgenic mice; conditions: different dosages of OLB-1, OLB-2, riluzole 5 mg/kg, FIG. 6
From the text: The pole climbing test is generally used to evaluate a motor coordination ability and motor delay of the limbs in mice. A homemade wooden pole about 50 cm long and about 1 cm in diameter was wrapped with medical gauze to increase friction of the wooden pole. The wooden pole was put vertically on a horizontal table, the mouse tail was grabbed such that the mouse head was facing down, with limbs grabbing a top of the pole; after releasing the mouse tail, timing was started, and it was ensured that the mouse crawled downward without external force, and the time was recorded for the mouse to climb from the top of the pole to a bottom platform (a standard was that mouse hind limbs were landed on the ground). […] An average of the three pole climbing times of mice was calculated as a final pole climbing time. […] Data were presented as mean±SEM; n=10 per group. One-way ANOVA and multiple range test were adopted to show differences between the two groups. ***p<0.001 vs. WT (normal control) group; #p<0.05, ##p<0.01 vs. ALS (SOD-G93A) group.

[6] = test system: ALS (SOD-G93A) transgenic mice; test: Limb grip force test in ALS transgenic mice; conditions: different dosages of OLB-1, OLB-2, riluzole 5 mg/kg, FIG. 7
Experimental: The limb grip force test is used directly to assess muscle strength in mice. […] After the start of administration, the grip force of the mice was tested every two weeks, and the measurement was repeated three times for each mouse, and the maximum among the three results was taken as a maximum grip force of the mice. […] Data were presented as mean±SEM; n=10 per group. One-way ANOVA and multiple range test show differences between the two groups. **p<0.01, ***p<0.001 vs. WT (normal control) group; #p<0.05, ##p<0.01 vs. ALS (SOD-G93A) group.

[7] = test system: 6-OHDA Parkinson's disease rats; test: APO-induced rotations in 6-OHDA Parkinson's disease rats; conditions: APO-induced 6-OHDA rats, 2 weeks of treatment; different dosages of OLB-1, OLB-2; levodopa 25 mg/kg; FIG. 8
From the text: There is no rotation in a sham-operated group, and there is no significant difference between the groups injected with 6-OHDA, and there are about 180 rotations. […] Data were presented as mean±SEM; n=9-10 per group. One-way ANOVA and multiple range test were adopted to show differences between the two groups. *p<0.05, **p<0.01 vs. before 6-OHDA group.

Row | Structure (SMILES) | Creatinine (db/db mice [1]) | Total cholesterol (db/db mice [1]) | Triglyceride (db/db mice [1]) | Urea (db/db mice [1]) | Glycated hemoglobin (db/db mice [1]) | Glucose determination (db/db mice [1]) | High-density lipoprotein cholesterol (db/db mice [1]) | Low-density lipoprotein cholesterol (db/db mice [1]) | Creatinine (db/db mice [2]) | Urea (db/db mice [2]) | Urine albumin/creatinine (db/db mice [2]) | proinflammatory cytokine IL-1β in hippocampus (5*FAD mice [3]) | proinflammatory cytokine TNF-α in hippocampus (5*FAD mice [3]) | memory impairment (number of errors jumping off the platform) (5*FAD mice [4]) | pole climbing time / symptoms of bradykinesia [5] | limb grip force [6] | number of rotations [7]
1 | Cc1nc(C)c(COC(=O)OCCc2ccc(O)cc2)nc1C [OLB-1] | 48.7 ± 3.68(a) μmol/L | 8.36 ± 2.63(c) mM | 10.88 ± 0.92(b) mg/dL | 8.03 ± 0.61(c) mmol/L | 643.06 ± 61.53(c) nmol/L | 25.99 ± 4.46(c) mM | 1.81 ± 0.15(b) mM | 0.69 ± 0.04(c) mM | 48.7 ± 3.68(a) μmol/L | 8.03 ± 0.61(c) mmol/L | 438.69 ± 83.23(c) mg/g | significantly reduced | significantly reduced | significantly improve memory impairment | significantly improve the symptoms of bradykinesia | effectively increase the limb force | effectively reduce the number of rotations
2 | Cc1nc(C)c(CNC(=O)OCCc2ccc(O)cc2)nc1C [OLB-2] | 46.28 ± 2.76(b) μmol/L | 7.38 ± 0.34(c) mM | 10.65 ± 0.54(b) mg/dL | 7.48 ± 0.35(c) mmol/L | 595.38 ± 52.47(c) nmol/L | 26.61 ± 1.15(c) mM | 1.87 ± 0.18(b) mM | 0.51 ± 0.03(c) mM | 46.28 ± 2.76(b) μmol/L | 7.48 ± 0.35(c) mmol/L | 477.51 ± 90.68(c) mg/g | significantly reduced | significantly reduced | significantly improve memory impairment | significantly improve the symptoms of bradykinesia | effectively increase the limb force | effectively reduce the number of rotations
